What was measured:
[1] = system: HDQ-P1; conditions: 72 h
Outline: (§1)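 After 72 h on 384-well plates pre-loaded with compound in 5 µl medium, breast cancer cell lines seeded in 20 µl were assayed for viability with 2.5 µl CellTiter-Blue at 37 °C for 2 h, read at 560/590 nm. Each plate was quality-checked by Z'-factor and normalised to vehicle and a positive kill control. EC50 comes from the fitted percent-inhibition dose-response curve, censored at the top concentration, and rows scoring zero for drug sensitivity were left out.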

[2] = system: MDA-MB-453; conditions: 72 h
Outline: as §1

[3] = system: DU-4475; conditions: 72 h
Outline: as §1

[4] = system: CAL-85-1; conditions: 72 h
Outline: as §1

[5] = system: MDA-MB-468; experiment: drug sensitivity score (DSS), CellTiter-Blue viability (DSS (AUC-based score)); higher = stronger viability inhibition; extreme values may be limits of the assay; conditions: incubation time: 72 h
Experimental: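 DSRT with the CellTiter-Blue (resazurin reduction) viability readout, fluorescence 560/590 nm, 72 h incubation. Plates were normalised to DMSO and benzethonium chloride controls. DSS is computed from the area under the fitted dose-response curve (5 or 9 concentrations).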

[6] = system: MDA-MB-468; conditions: 72 h
Outline: as §1

[7] = system: MFM-223; conditions: 72 h
Outline: as §1

[8] = system: MDA-MB-231; conditions: 72 h
Outline: as §1

[9] = system: BT-474; conditions: 72 h
Outline: as §1

[10] = system: HDQ-P1; conditions: 72 h; remark: listed apart in the source
Outline: (§2)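 Breast cancer cell lines in 20 µl suspension were added to 384-well plates already holding compound at 5 concentrations, spaced in 10-fold steps across a compound-specific 10,000-fold range, and incubated for 72 h. CellTox Green fluorescence (485/520 nm) was read first to measure cell death, followed by CellTiter-Glo luminescence for viability after 10 min at room temperature. Each plate was normalised to 0.1 % DMSO and a positive kill control. EC50 values came from dose-response curve fits and were censored at the top concentration.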

[11] = system: MDA-MB-468; conditions: 72 h; remark: listed apart in the source
Outline: as §2

[12] = system: MDA-MB-453; conditions: 72 h; remark: listed apart in the source
Outline: as §2

[13] = system: SK-BR-3; conditions: 72 h
Outline: as §2

[14] = system: CAL-148; conditions: 72 h
Outline: as §2

[15] = system: MCF-10A; conditions: 72 h
Outline: as §2

[16] = system: CAL-85-1; conditions: 72 h; remark: listed apart in the source
Outline: as §2

[17] = system: BT-549; conditions: 72 h
Outline: as §2

[18] = system: CAL-85-1; conditions: 72 h; remark: listed apart in the source
Experimental: (§3)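 Drug sensitivity and resistance testing (DSRT) of breast cancer cell lines in 384-well plates, 5 concentrations in 10-fold dilutions over a compound-specific 10,000-fold range. After 72 h, cytotoxicity was read by CellTox Green fluorescence and viability by CellTiter-Glo luminescence (multiplexed), normalised to DMSO and benzethonium chloride controls. EC50 is the inflection point of the fitted dose-response curve (bottom asymptote free, so it can be relative for partial curves) and is censored at the highest tested concentration. Rows with DSS 0 (no meaningful response) were excluded.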

[19] = system: Hs578T; conditions: 72 h
Outline: as §1

[20] = system: HCC1143; conditions: 72 h
Outline: as §2

[21] = system: DU-4475; conditions: 72 h; remark: listed apart in the source
Outline: as §2

[22] = system: MFM-223; conditions: 72 h; remark: listed apart in the source
Outline: as §2

[23] = system: MDA-MB-436; conditions: 72 h
Outline: as §2

[24] = system: MDA-MB-231; conditions: 72 h; remark: listed apart in the source
Outline: as §2

[25] = system: HCC1599; conditions: 72 h
Outline: as §2

[26] = system: Hs578T; conditions: 72 h; remark: listed apart in the source
Outline: as §2

[27] = system: HCC1937; conditions: 72 h
Outline: as §2

[28] = system: CAL-51; conditions: 72 h
Outline: as §2

[29] = system: CAL-120; conditions: 72 h
Outline: as §2

[30] = system: BT-474; conditions: 72 h; remark: listed apart in the source
Outline: as §2

[31] = system: HDQ-P1; conditions: 72 h; remark: listed apart in the source
Experimental: as §3

[32] = system: MFM-223; conditions: 72 h; remark: listed apart in the source
Experimental: as §3

[33] = system: MDA-MB-231; conditions: 72 h; remark: listed apart in the source
Experimental: as §3

[34] = system: Hs578T; conditions: 72 h; remark: listed apart in the source
Experimental: as §3

[35] = system: CAL-51; conditions: 72 h; remark: listed apart in the source
Experimental: as §3

[36] = system: MCF-10A; conditions: 72 h; remark: listed apart in the source
Experimental: as §3

[37] = system: BT-549; conditions: 72 h; remark: listed apart in the source
Experimental: as §3

[38] = system: BT-474; conditions: 72 h; remark: listed apart in the source
Experimental: as §3

[39] = system: HCC1143; conditions: 72 h; remark: listed apart in the source
Outline: as §1

[40] = system: HCC1599; conditions: 72 h; remark: listed apart in the source
Outline: as §1

| EC50, CellTiter-Blue viability [2] | EC50, CellTiter-Blue viability [6] | EC50, CellTiter-Blue viability [8] | EC50, CellTiter-Blue viability [9] | EC50, CellTiter-Glo [11] | EC50, CellTiter-Glo [12] | EC50, CellTiter-Glo [13] | EC50, CellTiter-Glo [17] | EC50, CellTiter-Glo [20] | EC50, CellTiter-Glo [23] | EC50, CellTiter-Glo [24] | EC50, CellTiter-Glo [25] | EC50, CellTiter-Glo [27] | EC50, CellTiter-Glo [30] | EC50, CellTiter-Blue viability [39] | EC50, CellTiter-Blue viability [40] | Structure (SMILES) | EC50, CellTiter-Blue viability [1] | EC50, CellTiter-Blue viability [3] | EC50, CellTiter-Blue viability [4] | drug sensitivity score [5] | EC50, CellTiter-Blue viability [7] | EC50, CellTiter-Glo [10] | EC50, CellTiter-Glo [14] | EC50, CellTiter-Glo [15] | EC50, CellTiter-Glo [16] | EC50, CellTox Green [18] | EC50, CellTiter-Blue viability [19] | EC50, CellTiter-Glo [21] | EC50, CellTiter-Glo [22] | EC50, CellTiter-Glo [26] | EC50, CellTiter-Glo [28] | EC50, CellTiter-Glo [29] | EC50, CellTox Green [31] | EC50, CellTox Green [32] | EC50, CellTox Green [33] | EC50, CellTox Green [34] | EC50, CellTox Green [35] | EC50, CellTox Green [36] | EC50, CellTox Green [37] | EC50, CellTox Green [38] |
| --- | --- | --- | --- | --- | --- | --- | --- | --- | --- | --- | --- | --- | --- | --- | --- | --- | --- | --- | --- | --- | --- | --- | --- | --- | --- | --- | --- | --- | --- | --- | --- | --- | --- | --- | --- | --- | --- | --- | --- | --- |
| 3640 nM | 3040 nM | 2060 nM | 4450 nM | – | – | – | – | – | – | – | – | – | – | – | – | CN1CCC(COc2cnc(-c3cccc(Cn4nc(-c5cccc(C#N)c5)ccc4=O)c3)nc2)CC1 | 4970 nM | 5.89 µM | 5150 nM | 5.78 | 6.27 µM | – | – | – | – | – | – | – | – | – | – | – | – | – | – | – | – | – | – | – |
| 45.7 nM | 1160 nM | 2010 nM | 20.9 nM | 158 nM | 54.7 nM | 10.7 nM | > 1000 nM | – | – | – | – | – | – | – | – | CN(C)C/C=C/C(=O)Nc1cc2c(Nc3ccc(F)c(Cl)c3)ncnc2cc1O[C@H]1CCOC1 [Afatinib] | 398 nM | – | 147 nM | 13 | 3.74 µM | 9.48 nM | 24.1 nM | 6.58 nM | 35.2 nM | 19.7 nM | 4260 nM | – | – | – | – | – | – | – | – | – | – | – | – | – |
| 165 nM | 278 nM | 190 nM | 278 nM | 261 nM | 548 nM | 218 nM | 294 nM | 359 nM | 143 nM | 242 nM | 417 nM | 357 nM | 183 nM | 127 nM | 165 nM | CN1CC[C@H](c2c(O)cc(O)c3c(=O)cc(-c4ccccc4Cl)oc23)[C@H](O)C1 [Alvocidib] | 163 nM | 0.141 µM | 153 nM | 17.6 | 0.174 µM | 183 nM | 243 nM | 368 nM | 372 nM | 473 nM | 93.6 nM | 282 nM | 335 nM | 376 nM | 167 nM | 167 nM | 167 nM | 558 nM | 135 nM | 1790 nM | 806 nM | 420 nM | 1010 nM | > 10 µM |

Reference: the supplement of paper PMC4862054
